Some test systems named below: HOP-92 NSCLC; HT29 colon; K-562 leukemia; MDA-MB-231 breast; MOLT-4 leukemia; RXF 393 renal; SF-539 CNS; SR leukemia; TK-10 renal; LOX IMVI melanoma.
Assay in all cases: NCI-60 cell line screen, 48 h

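Where inhibition never reached the appropriate level, the endpoint shown equals the highest concentration tested. Otherwise, values were interpolated linearly from a five-concentration, 48-hour dose response in 96-well plates. At the TGI there is no net growth.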 Where only a bound is given, the exact number is not on record here.

For the molecule `Cc1nnc(NS(=O)(=O)c2ccc(N=Nc3c(O)c(C(=O)O)cc4ccccc34)cc2)s1`, the TGI in the assay with HOP-92 NSCLC, in the assay with HT29 colon, in the assay on K-562 leukemia, with MDA-MB-231 breast, in the assay on MOLT-4 leukemia and in the assay with RXF 393 renal was > 100 µM each time. Further, the TGI in the assay with SF-539 CNS, in the assay with SR leukemia and in the assay on TK-10 renal was > 100 µM in each case.

Consider `CC(=O)C1=C(C)N2C(=NC3=C(CCc4ccccc43)C2c2ccc(Cl)cc2)S1` (stereo unspecified), for which the TGI was > 100 µM with HOP-92 NSCLC; > 100 µM in the assay on HT29 colon; > 56.2 µM in the assay on K-562 leukemia; > 100 µM in the assay on LOX IMVI melanoma; > 100 µM in the assay with MDA-MB-231 breast; 55.3 µM in the assay on MOLT-4 leukemia. Moreover, the TGI in the assay with RXF 393 renal, in the assay with SF-539 CNS and in the assay with TK-10 renal was > 100 µM each time.

As to `CCOc1cc(NC(C)=O)ccc1C(=O)NN1C(=O)/C(=C/c2ccc(Cl)cc2)N=C1c1ccccc1`, the TGI with HOP-92 NSCLC, with HT29 colon, with K-562 leukemia, in the assay with LOX IMVI melanoma, with MDA-MB-231 breast and with MOLT-4 leukemia was > 100 µM throughout. Moreover, the TGI in the assay on RXF 393 renal, in the assay on SF-539 CNS, in the assay on SR leukemia and with TK-10 renal was > 100 µM each time.

For `O=C(c1ccccc1)N1N=C(C(F)(F)F)CC1(O)C(F)(F)F` (stereo unspecified), the TGI with HT29 colon, with K-562 leukemia, with LOX IMVI melanoma, with MDA-MB-231 breast, with MOLT-4 leukemia and in the assay with SF-539 CNS was > 100 µM throughout. For the same molecule, the TGI with SR leukemia and with TK-10 renal was > 100 µM each time.

As for `CC(=O)OC(C(=O)NNC(=O)OC(C)(C)C)c1ccccc1` (stereo unspecified), the TGI with HOP-92 NSCLC, with HT29 colon, in the assay with K-562 leukemia, with MDA-MB-231 breast, in the assay with MOLT-4 leukemia and in the assay on RXF 393 renal was > 100 µM each time. Also, the TGI in the assay with SF-539 CNS, with SR leukemia and in the assay with TK-10 renal was > 100 µM each time.

As for `N#Cc1nc(CCC(C(=O)O)N2C(=O)c3ccccc3C2=O)oc1N` (stereo unspecified), the TGI in the assay with HOP-92 NSCLC, in the assay with HT29 colon, in the assay on K-562 leukemia, in the assay with MDA-MB-231 breast, with MOLT-4 leukemia and in the assay with RXF 393 renal was > 100 µM in each case. Also, the TGI with SF-539 CNS, in the assay on SR leukemia and in the assay on TK-10 renal was > 100 µM in each case.

`COc1nc2c(c(=O)[nH]1)N=C(c1ccc([N+](=O)[O-])cc1)CC(c1ccccc1)N2` (stereo unspecified): the TGI in the assay with HOP-92 NSCLC, with HT29 colon, in the assay on K-562 leukemia, with LOX IMVI melanoma, with MDA-MB-231 breast and in the assay with MOLT-4 leukemia was > 100 µM throughout. Besides, the TGI with RXF 393 renal, in the assay with SF-539 CNS and in the assay with SR leukemia was > 100 µM throughout.

For `CC12CCC(C(=Nc3ccc([N+](=O)[O-])cc3)C1=O)C2(C)C` (stereo unspecified), the TGI is > 100 µM with HT29 colon; 55.2 µM in the assay with K-562 leukemia; 31.3 µM in the assay on LOX IMVI melanoma; 76.6 µM in the assay with MDA-MB-231 breast; 44.9 µM with RXF 393 renal; 42.2 µM with SF-539 CNS. The figures for the TGI in the assay on SR leukemia and with TK-10 renal were 59.3 µM and 59 µM, respectively.

On to `C[C@@H](NC(=O)Nc1cccc(C(=O)Nc2cc(C(C)(C)C)ccc2C(=O)O)n1)c1ccccc1`, for which the TGI with HT29 colon was > 100 µM; in the assay on K-562 leukemia, > 100 µM; in the assay with LOX IMVI melanoma, 36.7 µM; in the assay with MDA-MB-231 breast it was 50 µM; in the assay with MOLT-4 leukemia, > 100 µM; in the assay with RXF 393 renal it was 38.5 µM. Besides, in the assay on SR leukemia, the TGI was > 100 µM.

As to `Cc1cccc2c(=O)c3cccc(CC(=O)O)c3oc12`, the TGI in the assay with HOP-92 NSCLC, in the assay with HT29 colon, in the assay on K-562 leukemia, in the assay on LOX IMVI melanoma, in the assay with MDA-MB-231 breast and with MOLT-4 leukemia was > 100 µM in each case. In addition, the TGI in the assay on SF-539 CNS, with SR leukemia and with TK-10 renal was > 100 µM each time.

In the case of `CCOC(=O)c1c2ccccc2n2c(=O)n(-c3ccccc3)nnc12`, the TGI was > 100 µM in the assay on HOP-92 NSCLC; 47.3 µM in the assay with K-562 leukemia; > 100 µM in the assay on LOX IMVI melanoma; > 100 µM in the assay with MDA-MB-231 breast; > 100 µM in the assay on RXF 393 renal; > 100 µM in the assay on SF-539 CNS. Moreover, the TGI in the assay on SR leukemia is > 25.1 µM; in the assay on TK-10 renal, > 100 µM.

As to `C=C1C(=O)O[C@H]2[C@@H]3O[C@@](C)(CC/C=C(\C)CCC[C@@H]2C)[C@H](O)C[C@@H]13`, the TGI in the assay on HOP-92 NSCLC is > 100 µM; in the assay on HT29 colon, 3.94 µM; in the assay with K-562 leukemia, > 100 µM; with LOX IMVI melanoma, 16.2 µM; with MDA-MB-231 breast, 21.6 µM; in the assay with RXF 393 renal, 84.3 µM. In addition, the TGI in the assay on SF-539 CNS was 5.6 µM; with SR leukemia it was > 100 µM; in the assay on TK-10 renal, 17.4 µM.

On to `CN(C)CCCCN1c2ccccc2Sc2ccc(N=[N+]=[N-])cc21`, for which the TGI in the assay with HOP-92 NSCLC is 13.4 µM; in the assay on HT29 colon, 5.22 µM; in the assay on K-562 leukemia it was 4.56 µM; in the assay with LOX IMVI melanoma it was 5.77 µM; in the assay on MDA-MB-231 breast, 19.9 µM; in the assay with MOLT-4 leukemia it was 5.85 µM. The values for the TGI in the assay on RXF 393 renal, in the assay on SF-539 CNS and in the assay on TK-10 renal were 16.1 µM, 16.8 µM and 24.7 µM, respectively.

Take `O=c1[nH]c2ccccc2c(=O)c2cc3ccccc3cc12`: the TGI in the assay on HOP-92 NSCLC was 19.8 µM; with HT29 colon it was > 100 µM; with K-562 leukemia, > 100 µM; in the assay on LOX IMVI melanoma, > 100 µM; in the assay on MDA-MB-231 breast, 22 µM; in the assay on MOLT-4 leukemia, > 100 µM. Besides, the TGI with RXF 393 renal is 56.3 µM; in the assay on SF-539 CNS, > 100 µM; in the assay on TK-10 renal, 37 µM.

Turning to `COc1ccc2nc3cc(Cl)ccc3c(NCCCN(C)CCCNc3ccc4ncn5c6ccccc6c(=O)c3c45)c2c1`, the TGI is > 16.9 µM with HOP-92 NSCLC; 0.69 µM with HT29 colon; > 25 µM with K-562 leukemia; 6.02 µM in the assay on MDA-MB-231 breast; > 5.72 µM in the assay with MOLT-4 leukemia; 1.14 µM with RXF 393 renal. Besides, the TGI in the assay on SF-539 CNS was 5.26 µM; in the assay with SR leukemia, > 7.84 µM; in the assay on TK-10 renal, 1.76 µM.

Values taken from PubChem BioAssay (NCI).
